Patent publication US20090035876A1, “Electrochemical Assay” (Inverness Medical Switzerland GMBH, priority 2005, published 2009)

Key:
[1] = molecular target: human serum albumin (HSA) (Homo sapiens, UniProt P02768); details: probe 25 μM, HSA 500 μM, cyclic voltammetry
Text: Cyclic voltammetry was used to measure the concentration of the ferrocene labelled fatty acid probe with and without the presence of HSA allowing percentage bound to be calculated.

[2] = Photolysis of the UV-cleavable ferrocene molecule in solution, followed by TLC; format: physicochemical; details: UV 365 nm, methanolic/PBS solution, 2.18 mM
Procedure: The cleavage study was followed by Thin Layer Chromatography (TLC) after irradiation for a definite time of a methanolic/PBS solution of the UV-cleavable ferrocene 9 (FIG. 3). • After 2 minutes of irradiation, the appearance of two new products was observed; One of them corresponding to the ferrocene product 8 (on the base line), the other one corresponding probably to the nitroso-derivative 10 just under the front line). • Under the irradiation conditions used, the Uv-cleavable ferrocene molecule was completely cleaved in less than 6 minutes.
To a solution of UV-cleavable ferrocene 9 (0.7 mg, 1.09*10^−6 mol) dissolved in 250 μl of methanol was added 250 μl of PBS. 30 μl of this solution was irradiated using a UV model B100A with a wavelength of 365 nm and an intensity of 8,900 μW/cm^2 at 10″. The UV was applied at approximately 15 cm from the solution.
The cleavage was followed by TLC every two minutes. Eluent used: Ethyl acetate/hexane (80/20) and DCM/MeOH/Et3N (85/10/5).

human serum albumin (HSA), sequence (P02768 25-609): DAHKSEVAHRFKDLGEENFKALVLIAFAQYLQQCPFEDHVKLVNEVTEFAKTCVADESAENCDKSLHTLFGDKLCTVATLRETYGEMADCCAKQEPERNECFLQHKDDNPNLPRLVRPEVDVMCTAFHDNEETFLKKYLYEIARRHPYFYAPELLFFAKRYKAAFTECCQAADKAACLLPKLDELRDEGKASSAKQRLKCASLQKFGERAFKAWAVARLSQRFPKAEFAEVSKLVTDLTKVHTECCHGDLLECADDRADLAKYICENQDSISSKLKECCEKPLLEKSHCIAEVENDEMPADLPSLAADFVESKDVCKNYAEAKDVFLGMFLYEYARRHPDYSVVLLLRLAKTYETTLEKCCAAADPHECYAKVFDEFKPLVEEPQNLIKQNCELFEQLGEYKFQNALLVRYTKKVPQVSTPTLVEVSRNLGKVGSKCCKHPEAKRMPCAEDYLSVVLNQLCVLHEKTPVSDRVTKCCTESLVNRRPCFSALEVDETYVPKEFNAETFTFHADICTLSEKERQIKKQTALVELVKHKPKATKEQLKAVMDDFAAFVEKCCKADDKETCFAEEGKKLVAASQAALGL

Compound	percentage bound to HSA [1] [%]	irradiation time until completely cleaved [2]
OC[c-]1cccc1.[Fe+2].c1cc[cH-]c1 [ferrocene methanol]	50	–
Thioacetic acid S—[3-(1-{2-[2-(2-ferrocenoylamino-ethoxy)-ethoxy]-ethylcarbamoyloxy}-ethyl)-4-nitro-benzyl]ester [UV-cleavable ferrocene molecule 9]	–	less than 6 minutes
